Measurements from PubChem BioAssay AID588660 (The Scripps Research Institute Molecular Screening Center, 2011).
Activity calls are given as the source filed them.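 Rule for the calls: active = KLF5 protein level shifted at least 30% from solvent-only control, either down or up; inactive = shift under 30% either way.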

Molecular target: Krueppel-like factor 5 (Homo sapiens) (UniProt Q13887)
Assay: change in KLF5 protein levels, late-stage follow-up, counter-screen for KLF5 inhibitor project, western blot, chemiluminescence, HT29 colorectal cells (AID 588660)
Details: 24 h, at 10 µM, hits give high values

Sequence of Krueppel-like factor 5 (Homo sapiens) (Q13887 whole entry, looked up): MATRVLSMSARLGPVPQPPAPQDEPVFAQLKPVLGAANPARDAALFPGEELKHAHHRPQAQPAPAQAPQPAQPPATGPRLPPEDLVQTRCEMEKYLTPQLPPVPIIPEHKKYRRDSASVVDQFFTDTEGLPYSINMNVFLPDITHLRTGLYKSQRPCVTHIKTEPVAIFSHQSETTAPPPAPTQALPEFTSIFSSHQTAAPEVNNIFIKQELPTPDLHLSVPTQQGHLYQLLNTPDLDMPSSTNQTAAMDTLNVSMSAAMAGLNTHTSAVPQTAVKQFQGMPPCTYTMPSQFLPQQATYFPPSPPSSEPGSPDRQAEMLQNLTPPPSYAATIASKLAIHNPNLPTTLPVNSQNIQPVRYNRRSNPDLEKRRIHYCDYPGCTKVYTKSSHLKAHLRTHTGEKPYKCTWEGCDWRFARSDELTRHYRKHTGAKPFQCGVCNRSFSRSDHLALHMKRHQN

inhibition: 12.8% (inactive)
SMILES: CN(C(=O)COC(=O)/C=C/c1cccc([N+](=O)[O-])c1)C1CCS(=O)(=O)C1 (stereo unspecified)
